# Assay results from ChEMBL document CHEMBL4251753, “Discovery of Potent 2-Aryl-6,7-dihydro-5 H-pyrrolo[1,2- a]imidazoles as WDR5-WIN-Site Inhibitors Using Fragment-Based Methods and Structure-Based Design” (J Med Chem, 2018).
# Test system: MV4-11
# Assay: Antiproliferative activity against human MV4-11 cells after 7 days by cell titer glo assay
# Format: functional
# Details: MV4-11, 168 h
row,Structure (SMILES),GI50 [µM]
1,COc1cc(C(=O)N[C@@H]2CCCc3ccc(-c4cn5c(n4)CCC5)cc32)ccc1C,22.3
2,O=C(Cc1ccc(Cl)c(Cl)c1)N[C@@H]1CCc2ccc(-c3cn4c(n3)CCC4)cc21,8.89
3,Cc1cc(C(=O)N[C@@H]2CCc3ccc(-c4cn5c(n4)CCC5)cc32)ccn1,> 30
4,COc1cc(C(=O)N[C@@H]2CCc3ccc(-c4cn5c(n4)CCC5)cc32)cc(OC)c1C,7.25
